Tests used:
[1] = test system: human sperm binding and penetration of zona-free hamster eggs; test: Zona-free hamster egg penetration assay (Example 6); format: cell-based; conditions: 25 μM or 100 μM, 3 hours preincubation; P<0.001
Method: The heterologous zona-free hamster egg penetration assay appears to correlate with the in vivo fertilizing capacity of human sperm as well as the ability of human sperm to fertilize intact human eggs in vitro.
15, 471 (1976)]. Motile fractions of sperm (n=4) obtained by 90-45% Percoll gradient centrifugation and wash were resuspended in BWW-3.5% BSA medium (pH 7.4) and divided into aliquots of 20×10^6 sperm/ml and allowed to capacitate for 24 hours. […] After exposure to drugs, the control and WHI-treated sperm suspensions were washed in BWW-3.5% BSA medium. Sperm motility following capacitation and washing in BWW-3.5% BSA medium was assessed by CASA.
Frozen hamster eggs (Charles River Laboratories, Wilmington, Mass.) were thawed and transferred to 35 mm glass bottom microwells (Mat Tek Corporation, Ashland, Mass.) in BWW medium. To remove zona, the washed eggs were treated with 0.05% trypsin (Irvine Scientific) in BWW medium for 20 min and then transferred to BWW-3.5% BSA medium and washed three times. Fifteen to 45 zona-free eggs per test were transferred in 100 μl of BWW-3.5% BSA medium under mineral oil. […] The number of sperm bound per egg, the number of swollen sperm heads per egg, and the percentage of penetrated eggs were determined for control and test sperm. […]

[2] = test system: female Swiss (CD-1) mice; test: Fertility of female mice after artificial insemination with intravaginal application (Example 7); format: in vivo, mouse
Description: Because fertilization in vivo is dependent on successful sperm transport through the female genital tract, we next determined whether exposure of sperm to the WHI-07 in vivo affected the subsequent fertility outcome. Hormonally primed adult female Swiss (CD-1) mice were artificially inseminated with motile epididymal sperm via the cervix with and without prior intravaginal application of WHI-07 in a cream base. Females were examined 8 days later for the presence or absence of embryos in uteri.
More particularly, adult (5-6 months old) female CD-1 mice were superovulated by an intraperitoneal injection (i. p.) of 5 IU of pregnant mare's serum gonadotropin followed by an i.p. injection of 5 IU of human chorionic gonadotropin 46-48 hours later. Mice were randomly assigned to one of the two treatment groups (27 or 24/group); vehicle controls [cream base (Taro Pharmaceuticals, Hawthorne, N.J.) with 1% DMSO], or test group (cream base with 1% WHI-07 in 1% DMSO) and given intravaginally (50 μl) prior to artificial insemination. Caudae epididymal sperm were obtained from proven breeder adult CD-1 male (5-6 months old) [B. Hogan, R. Beddington, F. Costantini, E. Lacy, Eds., Manipulating the Mouse Embryo (Cold Spring Harbor Laboratory Press, Plainview, N.Y., 1994] and suspended in a modified Krebs Ringer-bicarbonate medium (M2; Gibco-BRL) supplemented with pyruvate, lactate, and glucose. Sperm were capacitated in M2 medium-5% BSA for 1 hour prior to use. For each experiment cauda epididymal sperm pooled from 25 male mice and adjusted to 1-2×10^6 motile sperm/50 μl were used for insemination. A 50 μl volume/mouse was ejected through a 1 ml syringe with a blunted 18 gauge needle. Preparations were analyzed for sperm concentration, motility, and sperm motion parameters by CASA using software designed for oval sperm head morphology (Hamilton Thorne). On day 8, individual females representing the control and test group were killed and their uteri were examined for the presence or absence of embryos. A total of three independent fertility experiments were performed.

[3] = test system: HIV-1 strain HTLVIIIB; test: In vitro anti-HIV-1 activity, HTLVIIIB p24 assay in PBMC (Example 9); format: cell-based; conditions: Human immunodeficiency virus 1; HIV-1 replication in PBMC, p24 antigen production
Method: The HIV-1 strain, HTLVIIIB, which was propagated in CCRF-CEM cells, was used for in vitro assays of the anti-HIV-1 activity of selected novel WHI-07 analogues. Cell-free supernatants of HTLVIIIB-infected CCRF-CEM cells were harvested, dispensed into 1 ml aliquots, and frozen at −70° C. Titration of stock virus was performed by examining its cytopathic effects in MT-2 cells. [see, Uckun FM, et al., Antimicrob Agents Chemther 1998; 42:383-388]. Normal human peripheral blood mononuclear cells (PBMC) from HIV-negative donors were cultured for 72 h in RPMI 1640 supplemented with 20%(v/v) heat-inactivated fetal bovine serum (FBS), 3% interleukin-2, 2 mM L-glutamine, 25 mM HEPES, 2 g/L NaHCO3, 50 μg/ml gentamicin, and 4 μg/ml phytohemagglutinin prior to exposure to HIV-1 at a multiplicity of infection of 0.1 during a 1 h adsorption period at 37° C. in a humidified 5% CO2 atmosphere. […] Percent viral inhibition was calculated by comparing the p24 values from the drug-treated infected cells with p24 values from untreated infected cells (i.e., virus controls). […] A microculture tetrazolium assay, using 2,3-bis(2-methoxy-4-nitro-5-sulfophenyl)-5-[(phenylamino)-carbonyl]-2H-tetrazolium hydroxide, was performed to quantitate cellular proliferation.

[4] = experiment 1, 27 mice, 1% WHI-07 in cream base intravaginally, day 8
[5] = experiment 2, 27 mice, 1% WHI-07 in cream base intravaginally, day 8
[6] = experiment 3, 24 mice, 1% WHI-07 in cream base intravaginally, day 8
[7] = total of three experiments, 78 mice, p < 0.001 vs control

| Compound | sperm binding to zona-free eggs [1] | No. of WHI-07-treated mice fertile [2, 4] | WHI-07-treated mice fertile (%) [2, 4] [%] | No. of WHI-07-treated mice fertile [2, 5] | WHI-07-treated mice fertile (%) [2, 5] [%] | No. of WHI-07-treated mice fertile [2, 6] | WHI-07-treated mice fertile (%) [2, 6] [%] | No. of WHI-07-treated mice fertile [2, 7] | WHI-07-treated mice fertile (%) [2, 7] [%] | IC50 [3] [nM] |
| --- | --- | --- | --- | --- | --- | --- | --- | --- | --- | --- |
| 5-bromo-6-methoxy-5,6-dihydro-3 ′-azidothymidine-5 ′-(p-methoxyphenyl) methoxyalaninyl phosphate [WHI-05] | significant inhibition |  |  |  |  |  |  |  |  |  |
| COC(=O)C(C)NP(=O)(OCC1OC(N2C(=O)NC(=O)C(C)(Br)C2OC)CC1N=[N+]=[N-])Oc1ccc(Br)cc1 (centres unmarked) [WHI-07, 5-Bromo-6-methoxy-5,6-dihydro-3′-azidothymidine-5′-(p-Bromophenyl Methoxyalaninyl Phosphate)] | significant inhibition | 2 | 7.4 | 1 | 3.7 | 3 | 12.5 | 6 | 7.6 | 5 |

From patent US6482805B2 (Parker Hughes Institute, priority 1998, dated 2002)
